The record followed here is ChEMBL document CHEMBL1201862, “PubChem BioAssay data set” (2004).

Assay in all cases: DTP human tumour cell line panel, 48 h
In test [1] the test system is A498.
Test [2] deals with A549.
Test [3] relates to ACHN.
For test [4], the system named is CCRF-CEM.
In test [5] the test system is HCT-116.
In test [6] the test system is HOP-62.
Test [7] relates to HOP-92.
Test [8] deals with Hs-578T.
For test [9], the system named is IGROV-1.
Test [10] deals with KM12.
Test [11] concerns MDA-N.
The test system of test [12] is NCI-H226.
For test [13], the system named is NCI-H460.
For test [14], the system named is OVCAR-3.
The test system of test [15] is OVCAR-8.
The test system of test [16] is RXF 393.
For test [17], the system named is SF-268.
In test [18] the test system is SK-MEL-28.
Test [19] has as its system SNB-19.
The test system of test [20] is TK-10.

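Grown in 96-well plates, cells were treated for 48 hours with each compound at five concentrations. Insufficient inhibition: endpoint recorded as highest concentration tested. At the GI50, growth is halved.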 Calls of active or inactive are those of the source. Cut-off read from the data, not from the text of the source: active = GI50 up to about 1.1 µM and inactive = higher.

Turning to `CC1OC(OCC2OC(Oc3ccc(C4CC(=O)c5c(O)cc(O)cc5O4)cc3O)C(O)C(O)C2O)C(O)C(O)C1O` (stereo not given), the GI50 in test [1], in test [2], in test [3], in test [4], in [5] and in test [6] was > 100 µM (inactive) each time. In addition, the GI50 in test [7], in test [8], in test [9], in test [10], in [11] and in test [12] was > 100 µM (inactive) each time. Further, the GI50 in [13], in test [14], in [15], in test [16], in [17] and in [18] was > 100 µM (inactive) in each case. For the same compound, the GI50 in test [19] and in test [20] was > 100 µM (inactive) in each case.
Take `COc1cc(C2c3cc4c(cc3OC(O)C2C)OCO4)cc(OC)c1O` (stereo not given): the GI50 in test [1] was 23 µM (inactive); in test [2] it was 7.64 µM (inactive); in test [3] it was 12.4 µM (inactive); in [4] it was 5.19 µM (inactive); in test [5], 3.95 µM (inactive); in test [6] it was 10.7 µM (inactive). Besides, the GI50 in test [7] is 15.9 µM (inactive); in [8] it was 8.02 µM (inactive); in test [9], 8.55 µM (inactive); in test [10] it was 4.76 µM (inactive); in test [11] it was 1.84 µM (inactive); in test [12], 17 µM (inactive). Moreover, the GI50 was 4.85 µM (inactive) in [13]; 4.24 µM (inactive) in [14]; 16.6 µM (inactive) in test [15]; 7.35 µM (inactive) in test [16]; 15.8 µM (inactive) in [17]; 28.7 µM (inactive) in [18]. The GI50 was 11.6 µM (inactive) in test [19] and 6.95 µM (inactive) in test [20].
Regarding `CCCCCCCCCCCNC=O`, the GI50 was 22.4 µM (inactive) in test [1]; 51.3 µM (inactive) in [2]; 40.5 µM (inactive) in [3]; 26.5 µM (inactive) in [4]; 33.6 µM (inactive) in [5]; > 100 µM (inactive) in test [6]. The GI50 in [7] was 54.3 µM (inactive); in [8], 52 µM (inactive); in test [9], 84.7 µM (inactive); in test [10], 45.3 µM (inactive); in test [11], 56.6 µM (inactive); in test [12], 94.6 µM (inactive). The GI50 is 53.7 µM (inactive) in [13]; 35.4 µM (inactive) in test [14]; 58.1 µM (inactive) in test [15]; 48.8 µM (inactive) in test [16]; 49.1 µM (inactive) in test [17]; 68.5 µM (inactive) in test [18]. The results for the GI50 in test [19] and in [20] were > 100 µM (inactive) and 37.7 µM (inactive), respectively.
With `CN(C)c1ccc(C(=NN)c2ccc(N(C)C)cc2)cc1`, the GI50 in [1] was 4.93 µM (inactive); in [2] it was 1.3 µM (inactive); in [3] it was 8.3 µM (inactive); in [4] it was 0.394 µM (active); in test [5], 0.532 µM (active); in test [6], 1.9 µM (inactive). The GI50 in test [7] is 14.5 µM (inactive); in test [8] it was 2.33 µM (inactive); in test [9] it was 0.746 µM (active); in test [10], 0.358 µM (active); in [11] it was 0.0818 µM (active); in [12] it was 3.52 µM (inactive). Further, the GI50 was 0.337 µM (active) in [13]; 0.798 µM (active) in [14]; 2.52 µM (inactive) in [15]; 1.98 µM (inactive) in test [16]; 8.91 µM (inactive) in test [17]; > 66.1 µM (inactive) in test [18]. The GI50 in test [19] was 2.2 µM (inactive); in [20], 0.557 µM (active).
In the case of `O=C(O)C(C1NCCS1)N1C(=O)c2ccccc2C1=O` (stereo not given), the GI50 in test [1], in test [2], in [3], in test [4], in test [5] and in [6] was > 100 µM (inactive) throughout. Moreover, the GI50 in test [7], in [8], in [9], in test [10], in test [11] and in test [12] was > 100 µM (inactive) in each case. Moreover, the GI50 in test [13], in test [14], in test [15], in test [16], in [17] and in test [18] was > 100 µM (inactive) in each case. In addition, the GI50 in test [19] and in test [20] was > 100 µM (inactive) in each case.
On to `CC(=O)C1=C(C)N(c2ccccc2)C2(O)C3=C(C(=O)c4ccccc4C3=O)C(O)=CC12Cl` (stereo not given), for which the GI50 in test [1] was 13 µM (inactive); in test [2], 7.29 µM (inactive); in test [3], 5.11 µM (inactive); in test [4], 0.65 µM (active); in [5], 5.96 µM (inactive); in test [6], 17.2 µM (inactive). In addition, the GI50 in test [7] is 7.08 µM (inactive); in test [8], 4.01 µM (inactive); in test [9], 2.71 µM (inactive); in test [10] it was 4.17 µM (inactive); in [11], 2.94 µM (inactive); in [12], 21.4 µM (inactive). Further, the GI50 in test [13] is 5.26 µM (inactive); in test [14], 4.2 µM (inactive); in test [15], 4.08 µM (inactive); in test [16] it was 5.85 µM (inactive); in test [17], 6.73 µM (inactive); in test [18] it was 6.73 µM (inactive). Also, the GI50 in test [19] is 5.36 µM (inactive); in [20], 14.4 µM (inactive).
`CC(C)(C)OC(=O)c1ccc(NCC2=CC(=O)C=CC2=O)cc1`: the GI50 in test [1] is 15.2 µM (inactive); in test [2], 18.1 µM (inactive); in test [3], 10.1 µM (inactive); in test [4], 1.76 µM (inactive); in [5] it was 13.2 µM (inactive); in [6], 25.9 µM (inactive). Also, the GI50 in test [7] was 1.93 µM (inactive); in test [8], 15.7 µM (inactive); in test [9], 11.6 µM (inactive); in test [10], 14.5 µM (inactive); in test [11], 12.5 µM (inactive); in [12], 18.2 µM (inactive). Also, the GI50 is 23.6 µM (inactive) in test [13]; 4.15 µM (inactive) in test [14]; 13 µM (inactive) in test [15]; 11.4 µM (inactive) in test [16]; 11.5 µM (inactive) in [17]; 15.6 µM (inactive) in test [18]. Besides, the GI50 in test [19] was 15.1 µM (inactive); in [20], 9.25 µM (inactive).
As to `O=C(NN1CCCCC1)c1cc2cc(CCl)ccc2oc1=O`, the GI50 is 75.2 µM (inactive) in [1]; 19.6 µM (inactive) in test [2]; 44.5 µM (inactive) in test [3]; 17.2 µM (inactive) in test [4]; 18.2 µM (inactive) in test [5]; 19.4 µM (inactive) in test [6]. Besides, the GI50 was 10.4 µM (inactive) in test [7]; 16.3 µM (inactive) in test [8]; 19.4 µM (inactive) in [9]; 22.1 µM (inactive) in test [10]; 15.7 µM (inactive) in [11]; 20.6 µM (inactive) in test [12]. In addition, the GI50 in test [13] was 14.9 µM (inactive); in [14] it was 20.4 µM (inactive); in test [15] it was 22.1 µM (inactive); in test [16], 18.5 µM (inactive); in test [17], 16.4 µM (inactive); in [18] it was 29.3 µM (inactive). In addition, the GI50 in test [19] is 23.6 µM (inactive); in test [20], 17 µM (inactive).
Turning to `O=[N+]([O-])c1cc2oc(COc3ccccc3)nc2cc1Cl`, the GI50 in [1] is 33.1 µM (inactive); in test [2], 33.5 µM (inactive); in test [3] it was 48.3 µM (inactive); in test [4] it was 27.5 µM (inactive); in [5], 19 µM (inactive); in test [6], 20.4 µM (inactive). For the same compound, the GI50 is 22.5 µM (inactive) in [7]; 38.6 µM (inactive) in [8]; 19.5 µM (inactive) in test [9]; 20.9 µM (inactive) in test [10]; 25.9 µM (inactive) in test [11]; 17 µM (inactive) in test [12]. Besides, the GI50 was 21.3 µM (inactive) in test [13]; 17.9 µM (inactive) in test [14]; 35.2 µM (inactive) in test [15]; 22.1 µM (inactive) in test [16]; 47.4 µM (inactive) in test [17]; 32.6 µM (inactive) in [18]. Also, the GI50 in test [19] was 38.8 µM (inactive); in test [20], 35 µM (inactive).
For the compound `NS(=O)(=O)c1ccc(NS(=O)(=O)c2ccc(NC(=O)N(c3ccccc3)c3ccccc3)cc2)cc1`, the GI50 was > 100 µM (inactive) in [1]; > 100 µM (inactive) in [2]; > 100 µM (inactive) in test [3]; 2.7 µM (inactive) in test [4]; 82.4 µM (inactive) in [5]; 52.8 µM (inactive) in test [6]. Besides, the GI50 was 51.3 µM (inactive) in [7]; > 100 µM (inactive) in test [8]; 59 µM (inactive) in test [9]; 60.5 µM (inactive) in test [10]; 32.3 µM (inactive) in test [11]; > 100 µM (inactive) in test [12]. The GI50 in test [13] was 65.6 µM (inactive); in [14], 19.1 µM (inactive); in test [15] it was > 100 µM (inactive); in [16], 21.9 µM (inactive); in test [17] it was 64.1 µM (inactive); in test [18], > 100 µM (inactive). Besides, the results for the GI50 in [19] and in test [20] were > 100 µM (inactive) and 50.4 µM (inactive), respectively.

What is called GI50 is the concentration at which growth is held to half of that of the control.
